One test deals with T1, MGL (Rattus norvegicus, UniProt Q8R431).
T1 construct: one g rat brain was homogenized using a Polytron homogenizer; from tissue; host or cells: rat brain homogenate
T1 sequence (Q8R431 1-303): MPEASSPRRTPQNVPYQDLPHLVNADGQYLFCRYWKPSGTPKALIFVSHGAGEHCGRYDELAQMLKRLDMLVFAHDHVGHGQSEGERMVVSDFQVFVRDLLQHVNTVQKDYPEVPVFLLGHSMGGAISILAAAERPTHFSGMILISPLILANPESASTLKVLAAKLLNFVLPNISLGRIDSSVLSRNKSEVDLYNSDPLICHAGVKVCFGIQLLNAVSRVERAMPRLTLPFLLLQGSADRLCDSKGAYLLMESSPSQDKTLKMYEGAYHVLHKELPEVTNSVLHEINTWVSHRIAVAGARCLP
Nature of the test: 2-AG accumulation assay in rat brain homogenate. In kind it is biochemical. The conditions noted are these: rat brain homogenate, 2-AG accumulation as percent of vehicle; for 2-AG accumulation, % of vehicle control at 1 µM: compound 1 μM, read-out: Rat Brain 2AG % VehCntrl (%) @ 1 μM; for 2-AG accumulation, % of vehicle control at 0.1 µM: compound 0.1 μM, read-out: Rat Brain 2AG % VehCntrl (%) @ 0.1 μM; for 2-AG accumulation, % of vehicle control at 10 µM: compound 10 μM, read-out: Rat Brain 2AG % VehCntrl (%) @ 10 μM.

In another test the target is T2, mutant MGL (Homo sapiens, UniProt Q99685, L169S/L176S).
T2 sequence (Q99685 1-303 L169S/L176S): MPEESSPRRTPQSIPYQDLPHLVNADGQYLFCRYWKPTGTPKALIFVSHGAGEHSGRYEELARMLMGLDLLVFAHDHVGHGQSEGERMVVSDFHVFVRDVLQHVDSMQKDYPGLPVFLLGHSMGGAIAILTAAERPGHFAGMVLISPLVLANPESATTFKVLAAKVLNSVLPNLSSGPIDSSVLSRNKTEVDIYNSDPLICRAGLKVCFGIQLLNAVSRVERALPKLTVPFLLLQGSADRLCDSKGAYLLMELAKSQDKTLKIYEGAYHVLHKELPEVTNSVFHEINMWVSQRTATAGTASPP
Nature of the test: MGL ThermoFluor assay - mutant. In kind it is binding. A general note: Differential scanning fluorimetry follows unfolding on heating by fluorescence.

For test [1], the system named is CFA-induced paw radiant heat hypersensitivity. Kind of test: CFA-induced paw radiant heat hypersensitivity. In kind it is in vivo, rat. The conditions noted are these: Rattus norvegicus, po, 30 mg/kg p.o., HPβCD, last time point 180 or 300 min.
For test [2], the target named is T3, purified wild type MGL (wt-MGLL 6H-11-313) (Homo sapiens, UniProt Q99685).
T3 sequence (Q99685 1-303): T2 sequence (Q99685 1-303 L169S/L176S) with S169L, S176L

[3] abbreviates: ThermoFluor concentration-response, read-out: MGL mutant ThermoFluor Kd.
[4] abbreviates: group mean values, read-out: CFA thermal hypersensitivity Method 1: peak % reversal.
Setting [5] is: ThermoFluor thermal stability binding assay, read-out: MGL mutant ThermoFluor Kd.
[6] abbreviates: individual animal values, read-out: CFA thermal hypersensitivity Method 2: peak % reversal.

SMILES strings stand for the structures. Positions count from the first letter of the chain named. Like-named read-outs stand apart in the source and are kept apart here.

As usually defined, the IC50 is the concentration needed to halve the response being measured. A higher IC50 goes with weaker potency in that assay. Take `O=C(c1ccc2c(ccn2-c2ccc(F)c(F)c2)c1)N1CC(N2CCN(C(=O)c3nccs3)CC2)C1` [Cpd 1362, 1-(3,4-Difluorophenyl)-5-({3-[4-(1,3-thiazol-2-ylcarbonyl)piperazin-1-yl]azetidin-1-yl}carbonyl)-1H-indole]: the 2-AG accumulation, % of vehicle control at 1 µM on MGL was determined as 635%. Further, the Kd on mutant MGL (setting [3]) worked out at 0.001 µM. In addition, the inhibition in vivo at 30 mg/kg in test [1] (setting [4]) was determined as 186%. Further, in test [2], the IC50 is less than 0.005 µM.

Consider `O=C(c1ccc2c(-c3ccc(C(F)(F)F)cc3)c[nH]c2c1)N1CC(N2CCN(C(=O)c3nccs3)CC2)C1` [Cpd 1340], for which, on MGL, the 2-AG accumulation, % of vehicle control at 1 µM came to 761%. Besides, the Kd at mutant MGL (setting [3]) stood at 0.001 µM. In test [1] (setting [4]), the inhibition in vivo at 30 mg/kg stood at 13.1%. The IC50 in test [2] is less than 0.005 µM.

As to `Cc1cc(-c2ccc(F)c(Cl)c2)ccc1C(=O)N1CC(N2CCN(C(=O)c3cscn3)CC2)C1` [Cpd 253, 1-{1-[(3′-Chloro-4′-fluoro-3-methylbiphenyl-4-yl)carbonyl]azetidin-3-yl}-4-(1,3-thiazol-4-ylcarbonyl)piperazine], on MGL, the 2-AG accumulation, % of vehicle control at 0.1 µM is 107%; the 2-AG accumulation, % of vehicle control at 1 µM was 319%; the 2-AG accumulation, % of vehicle control at 10 µM came to 624%. Besides, the Kd at mutant MGL (setting [5]) was found to be 0.0215 µM. The inhibition in vivo at 30 mg/kg in test [1] (setting [4]) was 64.3%. Further, in test [1] (setting [6]), the inhibition in vivo at 30 mg/kg is 87.2%. This compound also yielded an IC50 in test [2] of 0.0494 µM.

`O=C(c1cccc(-c2ccc(F)cc2F)c1)N1CC(N2CCN(C(=O)c3nccs3)CC2)C1` [Cpd 1117, 1-{1-[(2′,4′-Difluorobiphenyl-3-yl)carbonyl]azetidin-3-yl}-4-(1,3-thiazol-2-ylcarbonyl)piperazine]: at MGL, the 2-AG accumulation, % of vehicle control at 1 µM was 437%. For the same compound, the Kd on mutant MGL (setting [3]) was determined as 0.214 µM. In test [1] (setting [4]), the inhibition in vivo at 30 mg/kg is 23.2%. Further, the midpoint of inhibition in test [2], the IC50, lay at 0.016 µM.

`O=C(c1ccc(-c2cccc(C(F)(F)F)c2)c(Cl)c1)N1CC(N2CCN(C(=O)c3cscn3)CC2)C1` [Cpd 1102, 1-(1-{[2-Chloro-3′-(trifluoromethyl)biphenyl-4-yl]carbonyl}azetidin-3-yl)-4-(1,3-thiazol-4-ylcarbonyl)piperazine]: the 2-AG accumulation, % of vehicle control at 1 µM at MGL is 878%. Further, the Kd on mutant MGL (setting [5]) turned out to be 0.006 µM. The values for the inhibition in vivo at 30 mg/kg in test [1] (setting [4]) and in test [1] (setting [6]) were 38% and 45.3%, respectively. This compound also showed an IC50 in test [2] of 0.013 µM.

As to `O=C(c1ccccc1)N1CCN(C2CN(C(=O)c3sc4cc(Br)ccc4c3Cl)C2)CC1` [Cpd 331], the 2-AG accumulation, % of vehicle control at 1 µM on MGL was 310%. Further, at mutant MGL (setting [5]), the Kd was determined as 0.0069 µM. In test [1] (setting [4]), the inhibition in vivo at 30 mg/kg was 14.3%. Moreover, in test [2], inhibition was half-maximal at 0.0457 µM (IC50).

For `O=C(c1cscn1)N1CCN(C2CN(C(=O)c3ccc(-c4ccc(Cl)c(C(F)(F)F)c4)cc3Cl)C2)CC1` [Cpd 266, 1-(1-{[3,4′-Dichloro-3′-(trifluoromethyl)biphenyl-4-yl]carbonyl}azetidin-3-yl)-4-(1,3-thiazol-4-ylcarbonyl)piperazine], the 2-AG accumulation, % of vehicle control at 1 µM on MGL came out at 395%. Moreover, the Kd at mutant MGL (setting [5]) was found to be 0.016 µM. For the same compound, the results for the inhibition in vivo at 30 mg/kg in test [1] (setting [4]) and in test [1] (setting [6]) were 50.5% and 56.1%, respectively. In test [2], this compound had an IC50 of 0.0498 µM.

On to `O=C(c1ccc(Oc2cccc(Cl)c2)c(F)c1)N1CC(N2CCN(C(=O)c3cscn3)CC2)C1` [Cpd 662], for which the 2-AG accumulation, % of vehicle control at 1 µM at MGL is 274%. In addition, the Kd at mutant MGL (setting [3]) turned out to be 0.1 µM. The values for the inhibition in vivo at 30 mg/kg in test [1] (setting [4]) and in test [1] (setting [6]) were 21% and 24%, respectively. Further, in test [2], the IC50 worked out at 0.011 µM.

Turning to `O=C(c1ccccc1)N1CCN(C2CN(C(=O)c3ccc4c(ccn4-c4ccc(F)c(F)c4)c3)C2)CC1` [Cpd 571, 1-(3,4-Difluorophenyl)-5-({3-[4-(phenylcarbonyl)piperazin-1-yl]azetidin-1-yl}carbonyl)-1H-indole], the 2-AG accumulation, % of vehicle control at 1 µM at MGL was 307%. Besides, the Kd at mutant MGL (setting [5]) was 0.046 µM; at mutant MGL (ThermoFluor, compound concentration measured by qNMR, read-out: MGL mutant ThermoFluor qKd (μM) (using qNMR conc.)), 0.08 µM. In addition, the inhibition in vivo at 30 mg/kg in test [1] (setting [4]) is 133%. The IC50 in test [2] is 0.028 µM.

As for `O=C(c1ccc(Oc2ncc(C(F)(F)F)cc2Cl)cc1)N1CC(N2CCN(C(=O)c3nccs3)CC2)C1` [Cpd 663], on MGL, the 2-AG accumulation, % of vehicle control at 1 µM was found to be 588%. Also, the Kd on mutant MGL (setting [3]) is 0.02 µM. The inhibition in vivo at 30 mg/kg in test [1] (setting [4]) was 33.9%. The compound also registered an IC50 in test [2] of 0.011 µM.

In the case of `Cc1nc(-c2cccc(Cl)c2)sc1C(=O)N1CC(N2CCN(C(=O)c3nccs3)CC2)C1` [Cpd 490, 1-(1-{[2-(3-Chlorophenyl)-4-methyl-1,3-thiazol-5-yl]carbonyl}azetidin-3-yl)-4-(1,3-thiazol-2-ylcarbonyl)piperazine], the 2-AG accumulation, % of vehicle control at 0.01 µM at MGL (compound 0.01 μM, read-out: Rat Brain 2AG % VehCntrl (%) @ 0.01 μM) turned out to be 208%. Moreover, at MGL, the 2-AG accumulation, % of vehicle control at 0.1 µM is 343%; the 2-AG accumulation, % of vehicle control at 1 µM amounted to 756%; the 2-AG accumulation, % of vehicle control at 10 µM came out at 886%. Also, on mutant MGL (setting [3]), the Kd amounted to 0.0084 µM. Moreover, the inhibition in vivo at 30 mg/kg in test [1] (setting [4]) is 18.4%. The inhibition in vivo at 30 mg/kg in test [1] (setting [6]) came to 19.7%. In test [2], this compound returned an IC50 of 0.0223 µM.

For the compound `O=C(c1ccc2c(ccn2-c2ccc(F)cc2F)c1)N1CC(N2CCN(C(=O)c3nccs3)CC2)C1` [Cpd 1364, 1-(2,4-Difluorophenyl)-5-({3-[4-(1,3-thiazol-2-ylcarbonyl)piperazin-1-yl]azetidin-1-yl}carbonyl)-1H-indole], the 2-AG accumulation, % of vehicle control at 1 µM on MGL was determined as 944%. On mutant MGL (setting [3]), the Kd stood at 0.001 µM. Besides, the inhibition in vivo at 30 mg/kg in test [1] (setting [4]) is 17%. The compound also gave an IC50 in test [2] of less than 0.005 µM.

Take `O=C(c1cccc(-c2cccc(F)c2)c1)N1CC(N2CCN(C(=O)c3nccs3)CC2)C1` [Cpd 1124]: the 2-AG accumulation, % of vehicle control at 1 µM at MGL stood at 506%. The Kd on mutant MGL (setting [3]) amounted to 0.25 µM. Also, the inhibition in vivo at 30 mg/kg in test [1] (setting [4]) amounted to 88.1%. This compound showed an IC50 in test [2] of 0.019 µM.

Take `Cc1c(C(=O)N2CC(N3CCN(C(=O)c4ccc[nH]4)CC3)C2)sc2cc(C(F)(F)F)ccc12` [Cpd 657, 1-(1-{[3-Methyl-6-(trifluoromethyl)-1-benzothiophen-2-yl]carbonyl}azetidin-3-yl)-4-(1H-pyrrol-2-ylcarbonyl)piperazine]: the 2-AG accumulation, % of vehicle control at 1 µM on MGL was determined as 581%. The Kd on mutant MGL (setting [3]) was 0.002 µM; on mutant MGL (compound concentration measured by qNMR, read-out: MGL mutant ThermoFluor qKd (using qNMR conc.)) it was 0.002 µM. Also, the inhibition in vivo at 30 mg/kg in test [1] (setting [4]) is 66%. Moreover, the IC50 in test [2] was 0.009 µM.

As to `O=C(c1ccccc1)N1CCN(C2CN(C(=O)c3sc4cc(C(F)(F)F)ccc4c3F)C2)CC1` [Cpd 509], the 2-AG accumulation, % of vehicle control at 1 µM on MGL is 242%. Moreover, the Kd on mutant MGL (setting [3]) stood at 0.033 µM. In test [1] (setting [4]), the inhibition in vivo at 30 mg/kg was 17.8%. For the same compound, in test [2], half-maximal inhibition (IC50) required 0.136 µM.

The values above are taken from patent US8362000B2, “Azetidinyl diamides as monoacylglycerol lipase inhibitors” (Janssen Pharmaceutica NV, priority 2009, dated 2013).
